{"source": "patent US9758501B2", "about": "“Fluorophore 3-hydroxyflavone” (TUBITAK (TURKIYE BILIMSEL VE TEKNOLOJIK ARASTIRMA KURUMU), priority 2013, dated 2017)", "key": {"[1]": {"test_system": "T25: single-strain DNA chain, comprising 25 Thymines", "experiment": "Fluorescence N*/T* ratio vs DNA concentration, T25", "settings": "T25 added to 3-HFNMe3 in ultra pure water", "method": "T25: A single-strain DNA chain, comprising 25 Thymines\n(§1) Fluorescence emission was then recorded after each addition the DNA solution (2 μl, 20 nmol/ml). The ratio of N* and T* bands was calculated and a graph, having N*/T* ratio vs DNA concentration was plotted."}, "single-strain DNA chains": {"test_system": "single-strain DNA chains", "experiment": "Fluorescence measurements on gradual addition of DNA solution", "settings": "ultra pure water; DNA solution added in 2 μl portions (20 nmol/ml)", "method": "as §1"}, "[2]": {"test_system": "C25: single-strain DNA chain, comprising 25 Cytosines", "experiment": "Fluorescence N*/T* ratio vs DNA concentration, C25", "settings": "C25 added to 3-HFNMe3 in ultra pure water", "method": "C25: A single-strain DNA chain, comprising 25 Cytosines\nas §1"}}, "data": [{"substance": "N-(3-hydroxy-4′-flavonyl)-N,N,N-trimethylammonium sulphate [3-HFNMe3]", "values": [{"measurement": "N*/T* curve, rank among DNA chains", "setting": "[1]", "value": "lowest"}, {"measurement": "effect of DNA addition on fluorescence emission", "setting": "single-strain DNA chains", "value": "ratiometric quenching of particularly the N* band"}, {"measurement": "N*/T* curve, rank among DNA chains", "setting": "[2]", "value": "highest"}]}]}
